Test results from PMC6105673 (Nature Communications, 2018).

Legend:
[1] = biological target: T1, pVHL-elongin B-elongin C (VBC) complex (Homo sapiens, UniProt P40337+Q15369+Q15370); experiment: Steady-state ELISA of VBC complex binding to immobilized biotinylated HIF-2α peptides; conditions: peptides (523–541) on streptavidin plate; VBC 1, 5 and 25 μg/mL; anti-elongin B antibody; three independent experiments in duplicate
T1 construct: a construct encoding N-terminal GST-tagged pVHL19 (54–213); GST (N, cleaved yes); made in house; host or cells: BL21(DE3) E. coli
Procedure: Fig. 4 Affinity of HIF-2α mutants for pVHL is correlated with disease phenotype. a Biotinylated HIF-2α peptides (523–541) were immobilized on a streptavidin-coated 96-well plate. Binding to various concentrations of pVHL-elongin B-elongin C (VBC) complex was assayed via ELISA with an anti-eloB antibody. Absorbance was read at 450 nm. Values represent mean of three independent experiments performed in duplicate ± SEM. *p < 0.05; **p < 0.01. b Biotinylated HIF-2αOH peptides (523–541) were immobilized on streptavidin- agarose beads and incubated with in vitro transcribed and translated (IVTT) pVHL. Streptavidin beads were pulled down (PD) and levels of HA-tagged pVHL were visualized via immmunoblotting (IB). c, d Biolayer interferometry kinetic analysis of VBC complex binding to biotinylated HIF-2α peptides (523–541). c Biotinylated peptides were coupled to streptavidin- coated biosensors and monitored for binding to VBC complex at the indicated concentrations. The data were analyzed based on a 1:1 binding model using the BLItz Pro software with the fitted curves shown as gray lines. […]
A 96-well streptavidin-coated plate (Quidel) was hydrated with ~200 μL of buffer A per well. […] Following the final wash step, the plates were developed according to manufacturer’s recommendations with ready-to-use TMB1 reagent (Thermo-fisher, Cat. No. 34028) for 20 min before being quenched with 2 N H2SO4. […]

[2] = biological target: T1, pVHL-elongin B-elongin C (VBC) complex; experiment: Biolayer interferometry kinetic analysis of VBC complex binding to biotinylated HIF-2α peptides; conditions: BLItz biolayer interferometry, peptide (523–541) immobilized, purified VBC, global 1:1 model; mean of three experiments ± SEM
Procedure: Absorbance was read at 450 nm. […] The data were analyzed based on a 1:1 binding model using the BLItz Pro software with the fitted curves shown as gray lines. […] Values represent mean of three experiments conducted with independently purified protein ± SEM. * denotes uncharacterized band
Multiple concentrations of purified VBC complex were diluted in kinetics buffer and allowed to associate with immobilized peptide over 120 s. Subsequently, the SA-BLI probe was immersed into kinetics buffer for 120 s to allow for dissociation. The data were analyzed, step corrected, reference corrected, and fit to a global 1:1 binding model. Kd, ka, and kd were calculated using the BLItz Pro software.

HIS6-PHD2(181-426) = experiment: Biolayer interferometry of HIS6-PHD2 binding to biotinylated HIF-2α peptides (523-542); conditions: BLI, 1 mM MnCl2 and 1 mM N-oxalylglycine, from mM to μM, accurate constants not possible (PHD2 aggregation)
Description: 2. The authors concluded that some of class 1 mutation affects PHD2-mediated hydroxylation of HIF-2α (Fig. 4). I think it is better to examine the interaction between HIF -2α mutants and PHD2 utilizing IP-Western and BLI. Also, negative controls (non-hydroxylated HIF-2α peptide without PHD2 treatment) should be included in Fig. 4A and 4B.
RE S PO N S E : Done. We performed binding assays with recombinant PHD2 to test the reviewer’s […]
major technical hurdle with performing binding assay with enzymes is overcoming the inherently transient nature of the interaction.
In an effort to stabilize the interaction between HIF-2α peptide and PHD2, we incorporated a technique that was used during co-crystallization of HIF-1α peptide with PHD2 (Chowdhury et al., 2009). As PHD2 normally forms a stable complex with co-factors Fe2+ and α-ketoglutarate (αK G), we formed a complex of PHD2 with Mn2+ and N-oxalylglycine (NOG), which mimic iron and αK G, […]
During BLI experiments, the addition of […]
Figure X. Biolayer interferometry studies of HIF-2α peptide binding to PHD2. […] Biotinylated peptides were coupled to streptavidin- coated biosensors and monitored for binding to PHD2 at the indicated concentrations in the presence or absence of 1 mM MnCl2 and 1 mM N-oxalylglycine. The data were analyzed based on a 1:1 binding model using the BLItz Pro software with the fitted curves shown as gray lines. […]

HIS6-PHD2 (181–426) [3] = experiment: Steady-state pull-down of purified HIS6-PHD2 with biotinylated HIF-2α peptides; format: binding
Description: To first test this hypothesis, we performed steady-state pull-down experiments with HIF-2α peptides (523–542) and purified HIS6-PHD2 (181–426). To stabilize the interaction between enzyme and substrate, it was necessary to include MnCl2 and N-oxalylglycine (NOG) in the binding buffer. Mn^2+ and NOG substitute for Fe^2+ and αKG, respectively, which stabilizes the HIF-2α-PHD2 interaction while preventing enzymatic turnover. A similar strategy was employed during co-crystallization of HIF-1α peptide with PHD2[43]. We observed that […] tested HIF-2α mutations result in decreased affinity for PHD2 (Supplementary Figure 6a). […] Next, we co-transfected HEK293a cells with 3xFLAG-HIF-2α ODD and HA-PHD2 constructs. […] The increased binding of the M535I mutant to PHD2 was not observed in this experiment. One important caveat is that the HIF-2α ODD constructs contain both the P405 and P531 sites. Thus, the residual PHD2 binding observed among HIF-2α mutants may partially be driven by the P405 site, which may mask differential PHD2 binding among the HIF-2α mutant ODD constructs.
5 μg of biotinylated HIF-2α peptide (WT or mutant) was immobilized on streptavidin agarose beads and incubated with a […] solution of purified HIS6-PHD2 (181–426) in 50 mM Tris-HCl pH 7.5, 0.005% (v/v) Tween-20 buffer supplemented with or without 1 mM MnCl2 and 1 mM NOG, for 2 h at 4 °C. Beads were washed 2x with the same buffer. Biotinylated peptide was pulled down via streptavidin agarose beads and protein was eluted by boiling beads in sample buffer. Protein levels of HIS6-PHD2 were determined by western blotting. Uncropped western blots are provided in Supplementary Figure 8.
Supplementary Figure 6. HIF-2α mutations disrupt PHD2 binding. (A) Biotinylated HIF-2α peptides (523-542, except where noted) were immobilized on streptavidin- agarose beads and incubated with purified HIS6-PHD2 (181-426) in the presence or absence of 1 mM MnCl2 and 1 mM N-oxalylglycine (NOG).
Streptavidin beads were pulled down (PD) and levels of HIS6-tagged PHD2 were visualized via immmunoblotting (IB). […]

HIS6-PHD2 (181–426) [4] = experiment: In vitro hydroxylation assay (HIS6-PHD2 treatment, then IVTT pVHL pull-down); format: biochemical; conditions: unmodified biotinylated peptides, 15 μg/mL HIS6-PHD2 (181–426), 1 h room temperature, then IVTT HA-VHL30 under stringent buffer
Procedure: Considering that prolyl hydroxylation is indispensable for HIF-2α binding to pVHL, we next examined the notion that the A530V mutation negatively influences hydroxylation of HIF-2α via PHD2, which would attenuate HIF-2α A530V binding affinity for pVHL. We conducted an in vitro hydroxylation assay utilizing unmodified peptides (amino acids 523–542) incubated with purified HIS6-PHD2 (catalytic core, amino acids 181–426).
Fig. 5 A subset of class 1 mutations specifically disrupts PHD2-mediated hydroxylation. a, b Biotinylated HIF-2α peptides (residues 523–542) were immobilized on streptavidin- agarose beads and incubated with HIS6-PHD2 for 1 h at room temperature prior to incubation with in vitro transcribed and translated (IVTT) pVHL. Streptavidin beads were pulled down (PD) and levels of HA-tagged pVHL were visualized via immmunoblotting (IB). c HEK293a cells were co-transfected with FLAG-VHL and HA-HIF-2α constructs. FLAG was immunoprecipitated (IP) and levels of HA-tagged HIF-2α were visualized via immunoblotting (IB). * denotes uncharacterized band
The in vitro pVHL-HIF-2α hydroxylation assay was performed according to a previously published protocol. 5 μg of biotinylated HIF-2α peptide was immobilized on streptavidin-agarose beads. Subsequently, peptides were incubated with 15 μg/mL HIS6-PHD2 (181–426) in 500 μL of 40 mM HEPES pH 7.4, 80 mM KCl, 5 mM a-ketoglutarate, 2 mM ascorbic acid, 100 μM FeCl2 tetrahydrate solution at room temperature for 1 h. FeCl2 was stored under anoxic conditions to prevent oxidation. Following hydroxylation, beads were washed 5x with EBC buffer and peptides were incubated with IVTT HA-VHL30 under the stringent buffer conditions described above.

T1 sequence (P40337 54-213): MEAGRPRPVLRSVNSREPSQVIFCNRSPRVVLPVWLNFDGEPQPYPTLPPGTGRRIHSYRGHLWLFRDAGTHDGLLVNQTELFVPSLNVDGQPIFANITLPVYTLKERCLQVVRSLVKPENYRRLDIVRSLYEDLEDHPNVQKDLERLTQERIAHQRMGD
T1 sequence (Q15370 whole entry partner): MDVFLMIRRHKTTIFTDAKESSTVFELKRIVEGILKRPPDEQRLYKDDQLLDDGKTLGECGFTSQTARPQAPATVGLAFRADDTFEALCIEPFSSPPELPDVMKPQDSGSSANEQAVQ
T1 sequence (Q15369 17-112 partner limits assumed): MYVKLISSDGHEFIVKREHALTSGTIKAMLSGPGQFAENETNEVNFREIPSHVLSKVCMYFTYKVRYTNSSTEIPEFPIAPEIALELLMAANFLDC

ka (association rate) [2] | decrease of Kd for PHD2 on addition of Mn2+ and NOG (HIS6-PHD2(181-426)) | binding to pVHL following HIS6-PHD2 treatment (immunoblot, in words) (HIS6-PHD2 (181–426) [4]) | Compound | binding to VBC by ELISA (absorbance at 450 nm, in words) [1] | pull-down of recombinant PHD2 (in words) (HIS6-PHD2 (181–426) [3]; earlier experiments, without Mn2+/NOG stabilization) | affinity for PHD2 in steady-state pull-down (immunoblot, in words) (HIS6-PHD2 (181–426) [3]; peptides (523–542), purified HIS6-PHD2 (181–426), with 1 mM MnCl2 and 1 mM NOG, 2 h at 4 °C)
4.0 ± 0.4 x10^4 Ms^−1 | – | – | CC[C@H](C)[C@H](NC(=O)[C@H](Cc1ccc(O)cc1)NC(=O)[C@@H]1C[C@@H](O)CN1C(=O)[C@H](C)NC(=O)[C@@H]1CCCN1C(=O)[C@@H](NC(=O)[C@H](CCC(=O)O)NC(=O)[C@H](CC(C)C)NC(=O)[C@H](CC(=O)O)NC(=O)[C@H](CC(C)C)NC(=O)[C@H](CCC(=O)O)NC(=O)CCCC[C@@H]1SC[C@@H]2NC(=O)N[C@@H]21)[C@@H](C)O)C(=O)N1CCC[C@H]1C(=O)N[C@@H](CCSC)C(=O)N[C@@H](CC(=O)O)C(=O)NCC(=O)N[C@@H](CCC(=O)O)C(=O)N[C@@H](CC(=O)O)C(=O)N[C@@H](Cc1ccccc1)C(=O)N[C@@H](CCC(N)=O)C(N)=O [HIF-2αOH (L529P)] | does not have a statistically significant effect | – | –
– | roughly 1000 fold | bound robustly | ELDLETLA[Hyp/P]YIPMDGEDFQL [Bio-HIF-2α(523-542;WT)] | – | failed to pull -down recombinant PHD2 protein | observed binding
